Measurements taken from patent US20120095024A1, “TOLUIDINE SULFONAMIDES AND THEIR USE” (Elara Pharmaceuticals GmbH, priority 2008, published 2012).

Experiments:
[1] = tested on: HIF mediated transcription; experiment: Inhibition of activation of HIF mediated transcription under hypoxic conditions (CellSensor HRE-bla HCT-116); type: cell-based; settings: Homo sapiens; HRE-bla HCT-116 cells, deferoxamine-induced hypoxia, 24 h
Procedure: Inhibition of an activated HIF signaling response under chemically-induced hypoxic conditions due to compound treatment was determined using the CellSensor® HRE-bla HCT-116 stably transfected reporter cell line from Invitrogen according to the manufacturer's instructions. HIF is a transcriptional factor composed of the constitutively expressed HIF1β subunit and one of three HIFα subunits (HIF1α, HIF2α, HIF3α). This assay is responsive towards HIFa activity in general. In one example, HIF-1, when stabilized by hypoxic conditions, upregulates several genes to promote cell survival in low-oxygen conditions. These include glycolysis enzymes, which allow ATP synthesis in an oxygen-independent manner, and vascular endothelial growth factor (VEGF), which promotes angiogenesis. HIF-1 acts by binding to HIF-responsive elements (HREs) in promoters that generally contain the sequence NCGTG.
Cells were maintained as described previously and seeded into 384-well, clear-bottom plates (Corning 3712) at 15000 cells/well in 32 μl assay medium (Opti-MEM [Invitrogen], 0.5% FBS, 100 U/ml penicillin, 100 μg/ml streptomycin, 0.1 mM non-essential amino acids [NEAA], 1 mM sodium pyruvate, 5 mM HEPES [pH 7.3]). Following a 2 h incubation period, compounds (4 μl) were subsequently added to the cells at 10× concentrations in 5% DMSO and incubated under normal conditions for 30 min. To induce hypoxic conditions, 4 μl of a 2 mM deferoxamine (DFO) solution was added to the cells followed by 24 h incubation under standard assay conditions (as described). Control wells included wells containing only medium (no cells) and wells treated with 0.5% DMSO instead of compound.
Prior to the readout, the Substrate Loading Solution was prepared as described in the manufacturer's protocol and 10 μl added to each well. Following a further 2 h incubation period at room temperature and in the dark, fluorescence was measured at two wavelengths (blue channel: ex. 409 nm, em. 460 nm; green channel: ex. 409 nm, em. 530 nm) on a PerkinElmer Envision HTS. For the analysis, the average signal of the cell-free wells at 460 nm and 530 nm was first subtracted from the blue and green channel data, respectively. The blue/green emission ratios were then calculated for each well, dividing the background-corrected blue emission values by the background-corrected green emission values. IC50 values were determined from these ratios using GraphPad Prism (Prism 5, GraphPad software, Inc.).

MCF7 cells = experiment: Cell proliferation assay (ATPlite), MCF-7; type: cell-based, human; settings: Homo sapiens, inhibition of cell proliferation, 72 h
Procedure: MCF-7 human breast adenocarcinoma cells and HL-60 acute promyelocytic leukaemia cells were obtained from ATCC (LGC Promochem). HG-1 multiple myeloma cells were obtained from Dr. D. Hose (DKFZ Heidelberg). The CellSensor® HRE-bla HCT116 cell line (colorectal carcinoma) was obtained from Invitrogen.
Cells were grown under humidified 95% air, 5% CO2 at 37° C. in Dulbecco's modified Eagle's medium (DMEM: MCF-7) or RPMI 1640 medium (RPMI: HL-60, HG-1) supplemented with 10% fetal bovine serum (FBS), 100 U/ml penicillin and 100 μg/ml streptomycin, 2 mM L-glutamine, and 2 ng/ml IL-6 (for the HG-1 cell line only). The HCT116 cell line was grown under the same atmospheric conditions in McCoy's 5A medium supplemented with 10% FBS and penicillin/streptomycin as above, in addition to blasticidin as a selection marker at a final concentration of 5 μg/ml.
Cell proliferation experiments were carried out in 96-well tissue culture plates with seeding of 2000 cells/well (MCF-7) or 1000 cells/well (HL-60, HG-1) in 100 μl of the relevant medium. Cells were subsequently incubated under the conditions mentioned for 24 h prior to addition of compounds.
For the determination of compound EC50 values, 10 μl compounds at 11× concentrations in 5.5% DMSO were added to the wells at various concentrations yielding a final constant percentage of 0.5% DMSO at the desired 1× compound concentration. As a positive control, cells were treated with 5.5% DMSO. The cells were then incubated for a further 72 h prior to the measurement.
To determine the degree of inhibition of cell proliferation, cells were treated with ATPlite solution according to the manufacturer's instructions (PerkinElmer, ATPlite 1-step Luminescence ATP Detection Assay System) and luciferase readout measured on an Envision HTS multilabel plate reader (PerkinElmer) in luminescence mode according to established protocols. Raw data were imported into an ActivityBase database (IDBS, ID Business Solutions) and EC50 values calculated using the IDBS program ActivityBase XE. Table 2A and 2B show the IC50 values obtained in the above-outlined cell proliferation assay for exemplary compounds of the invention.

[2] = tested on: estrogen receptor (ER)-mediated transcriptional activity; experiment: Inhibition of estrogen receptor (ER) signaling, ERE-tk-luc transfection assay in MCF-7 cells; type: cell-based; settings: Homo sapiens, MCF7, ERE-tk-luc luciferase readout, 24 h
Procedure: To determine the effect of the compounds on estrogen receptor (ER)-mediated transcriptional activity a transfection assay using the MCF-7 cell line was performed. A luciferase-coupled ERE-tk-luc construct was obtained from Dr. G. Reid (EMBL).
In brief, MCF-7 cells were maintained as described previously and seeded on the first experimental day at a concentration of 3500 cells/well in 100 μl medium and incubated under standard conditions for 24 h. Following this initial incubation period, transfection was carried out using 5 ng of the ERE-tk-luc construct (per well) and Exgene 500 transfection reagent (Fermentas) in a final buffered solution containing 150 mM NaCl and 20 mM Tris pH 8.4. The plates were then maintained for 3-4 hours until cell culture conditions in the incubator before compounds were added at 11× concentrations to yield the final desired compound concentrations in 0.5% DMSO (in the same manner as for the proliferation assays described previously).
After an additional 24 h incubation period the degree of inhibition of ER-signaling was determined via a luciferase readout. Cells were treated with Britelite™ plus solution according to the manufacturer's instructions (PerkinElmer, britelite plus, Ultra-High Sensitivity Luminescence Reporter Gene Assay System) and luciferase levels measured on an Envision HTS multilabel plate reader (PerkinElmer) in luminescence mode according to established protocols. Raw data were imported into an ActivityBase database (IDBS, ID Business Solutions) and IC50 values calculated using the IDBS program ActivityBase XE.

Row | SMILES | EC50 [1] [nM] | EC50 (MCF7 cells) [nM] | IC50 [2] [nM]
1 | COc1ccc(S(=O)(=O)Nc2cc(-c3ccc(C#N)cn3)ccc2C)cc1 [Example 49, N-[5-(5-Cyano-pyridin-2-yl)-2-methyl-phenyl]-4-methoxy-benzenesulfonamide] | – | < 500 | < 500
2 | Cc1ccc(S(=O)(=O)Nc2cc(-c3ccc(C#N)c(F)c3)ccc2C)cc1 [Example 71, N-(4′-Cyano-3′-fluoro-4-methyl-biphenyl-3-yl)-4-methyl-benzenesulfonamide] | < 500 | < 500 | –
3 | Cc1ccc(S(=O)(=O)Nc2cc(-c3csc(C#N)c3)ccc2C)cc1F [Example 95, N-(5-(5-cyanothiophen-3-yl)-2-methylphenyl)-3-fluoro-4-methylbenzenesulfonamide] | < 500 | < 500 | –
4 | Cc1ccc(S(=O)(=O)Nc2cc(-c3ccoc3)ccc2C)cc1 [Example 5, N-(5-Furan-3-yl-2-methyl-phenyl)-4-methyl-benzenesulfonamide] | – | < 500 | < 500
5 | COc1ccc(S(=O)(=O)Nc2cc(-c3ccc(C#N)c(OC)c3)ccc2C)cc1 [Example 89, N-(4′-Cyano-3′-methoxy-4-methyl-biphenyl-3-yl)-4-methoxy-benzenesulfonamide] | – | < 500 | –
6 | Cc1ccc(-c2ccc(C#N)cc2)cc1NS(=O)(=O)c1ccc(Cl)cc1 [Example 97, 4-chloro-N-(4′-cyano-4-methylbiphenyl-3-yl)benzenesulfonamide] | – | < 500 | –
7 | Cc1ccc(S(=O)(=O)Nc2cc(-c3cccc(C)c3)ccc2C)cc1 [Example 7, N-(4,3′-Dimethyl-biphenyl-3-yl)-4-methyl-benzenesulfonamide] | – | 500 to 1000 | –
8 | Cc1ccc(-c2ccc(C#N)s2)cc1NS(=O)(=O)c1ccc(F)cc1 [Example 91, N-[5-(5-Cyano-thiophen-2-yl)-2-methyl-phenyl]-4-fluoro-benzenesulfonamide] | – | 500 to 1000 | –
9 | Cc1ccc(S(=O)(=O)Nc2cc(-c3c(C)noc3C)ccc2C)cc1 [Example 48, N-[5-(3,5-Dimethyl-isoxazol-4-yl)-2-methyl-phenyl]-4-methyl-benzenesulfonamide] | – | < 500 | –
10 | COc1cccc(-c2ccc(C)c(NS(=O)(=O)c3ccc(C)cc3)c2)n1 [Example 9, N-[5-(6-Methoxy-pyridin-2-yl)-2-methyl-phenyl]-4-methyl-benzenesulfonamide] | – | 500 to 1000 | –

More lines, now with the values ahead:

Row | EC50 [1] [nM] | EC50 (MCF7 cells) [nM] | IC50 [2] [nM] | SMILES
11 | < 500 | < 500 | – | Cc1cc(S(=O)(=O)Nc2cc(-c3ccc(C#N)s3)ccc2C)ccc1F [Example 112, N-(5-(5-cyanothiophen-2-yl)-2-methylphenyl)-4-fluoro-3-methylbenzenesulfonamide]
12 | – | < 500 | < 500 | Cc1ccc(S(=O)(=O)Nc2cc(-c3ccco3)ccc2C)cc1 [Example 4, N-(5-Furan-2-yl-2-methyl-phenyl)-4-methyl-benzenesulfonamide]
13 | < 500 | < 500 | < 500 | Cc1ccc(S(=O)(=O)Nc2cc(-c3ccc(C#N)cn3)ccc2C)cc1 [Example 43, N-[5-(5-Cyano-pyridin-2-yl)-2-methyl-phenyl]-4-methyl-benzenesulfonamide]
14 | < 500 | < 500 | – | Cc1ccc(S(=O)(=O)Nc2cc(-c3csc(C#N)c3)ccc2C)cc1 [Example 68, N-[5-(5-Cyano-thiophen-3-yl)-2-methyl-phenyl]-4-methyl-benzenesulfonamide]
15 | < 500 | < 500 | – | Cc1ccc(-c2ccc(C#N)s2)cc1NS(=O)(=O)c1ccc2c(c1)OCO2 [Example 114, N-(5-(5-cyanothiophen-2-yl)-2-methylphenyl)benzo[d][1,3]dioxole-5-sulfonamide]
16 | – | < 500 | – | COc1cc(-c2ccc(C)c(NS(=O)(=O)c3ccc(N)cc3)c2)ccc1C#N [Example 102, 4-amino-N-(4′-cyano-3′-methoxy-4-methylbiphenyl-3-yl)benzenesulfonamide]
17 | – | 1000 to 10000 | – | COc1ccc(S(=O)(=O)Nc2cc(-c3ccc(SC)cc3)ccc2C)cc1 [Example 82, 4-Methoxy-N-(4-methyl-4′-methylsulfanyl-biphenyl-3-yl)-benzenesulfonamide]
18 | – | 500 to 1000 | – | Cc1ccc(S(=O)(=O)Nc2cc(-c3cccc(C)n3)ccc2C)cc1 [Example 33, 4-Methyl-N-[2-methyl-5-(6-methyl-pyridin-2-yl)-phenyl]-benzenesulfonamide]
19 | – | < 500 | – | Cc1ccc(S(=O)(=O)Nc2cc(-c3ccc(F)cn3)ccc2C)cc1 [Example 53, N-[5-(5-Fluoro-pyridin-2-yl)-2-methyl-phenyl]-4-methyl-benzenesulfonamide]
20 | – | < 500 | – | Cc1ccc(S(=O)(=O)Nc2cc(-c3sc(C)nc3C)ccc2C)cc1 [Example 12, N-[5-(2,4-Dimethyl-thiazol-5-yl)-2-methyl-phenyl]-4-methyl-benzenesulfonamide]
21 | – | < 500 | – | COc1ccc(-c2ccc(C)c(NS(=O)(=O)c3ccc(OC)cc3)c2)cc1 [Example 81, 4-Methoxy-N-(4′-methoxy-4-methyl-biphenyl-3-yl)-benzenesulfonamide]
22 | < 500 | < 500 | – | COc1ccc(S(=O)(=O)Nc2cc(-c3ccc(C#N)c(OC)c3)ccc2C)cc1F [Example 103, N-(4′-cyano-3′-methoxy-4-methylbiphenyl-3-yl)-3-fluoro-4-methoxybenzenesulfonamide]
23 | – | 500 to 1000 | – | COc1ccc(S(=O)(=O)Nc2cc(-c3ccccc3C#N)ccc2C)cc1 [Example 58, N-(2′-Cyano-4-methyl-biphenyl-3-yl)-4-methoxy-benzenesulfonamide]
